Experimental findings from patent US12178815B2, “Regimens for treating HIV infections and aids” (priority 2017, dated 2024) are described below.

For series [1], the system named is virus with reverse transcriptase mutations K103N, E138G, and K238T and integrase mutation Q148R. Put plainly: Phenotypic resistance of virus from subject with protocol-defined virologic failure. The note with it: eight-week group subject, RT K103N. Also noted: species or system HIV-1.
For series [2], the system named is virus with mixture at integrase codon 269 (R269R/G). Nature of the series: Susceptibility of virus from subject with protocol-defined virologic failure (integrase R269R/G). Also noted: species or system HIV-1. The note with it: eight-week group subject.
The subject of the next series is wild-type HIV-1. Nature of the series: in vitro protein-adjusted 90% inhibitory concentration (PA-IC90). It counts as cell-based. The note with it: against wild-type HIV-1.
Series [3] in a line: LATTE-2 plasma pharmacokinetics (trough concentrations). The class given is in vivo, human. The note with it: for C0 relative to in vitro PA-IC90 / C0 at 48 week: Week 48; for C0 at 48 week: human, plasma, im. On the procedure:
Pharmacokinetic plasma concentrations following long-acting cabotegravir+rilpivirine administration are summarized using evaluable data that met sample collection window criteria, excluding samples affected by dosing errors (wrong dose) or oral bridging. Sampling windows for intramuscular dosing were set relative to the previous injection as follows: ±0.5 hours for two-hour postdose samples; ±one day for one-week postinjection visits; ±two days for predose samples in the four-week group, Weeks 4 and 8 cabotegravir samples in the eight-week group, and midcycle concentrations four weeks postinjection in the eight-week group; and ±four days for predose samples in the eight-week group (except for Weeks 4 and 8 cabotegravir samples, as described earlier).

SMILES strings stand for the structures. ≈ marks a conversion by molar mass, not a printed value. Where two headings read alike, the source gives them in different places.

Consider `C[C@H]1CO[C@@H]2Cn3cc(C(=O)NCc4ccc(F)cc4F)c(=O)c(O)c3C(=O)N12` [cabotegravir, (3S,11aR)—N-[(2,4-difluorophenyl)methyl]-2,3,5,7,11,11a-hexahydro-6-hydroxy-3-methyl-5,7-dioxo-oxazolo[3,2-a]pyrido[1,2-d] pyrazine-8-carboxamide], for which, in series [1], the “Phenotypic resistance/sensitivity of subject's virus” value (from here on “Phenotypic resistance/sensitivity”) is “phenotypic resistance”. In addition, the “Effect of emergent integrase R269R/G mixture on susceptibility” value in series [2] was “did not decrease”. Also, the IC90 in the series on wild-type HIV-1 (Human immunodeficiency virus 1, read-out: in vitro protein-adjusted 90% inhibitory concentration (PA-IC90)) is 0.166 µg/mL (≈ 0.41 µM). For the same compound, the “C0 relative to in vitro PA-IC90” value is listed as 9 fold in series [3] (eight-week IM LA), 16 fold in series [3] (four-week IM LA) and 27 fold in series [3] (oral 30 mg once daily). In addition, the C0 at 48 week in series [3] (eight-week IM LA, read-out: geometric mean trough concentration (C0)) is 1460 ng/mL; in series [3] (four-week IM LA, read-out: geometric mean trough concentration (C0)), 2580 ng/mL.

For `C[C@@H]1CCO[C@H]2Cn3cc(C(=O)NCc4ccc(F)cc4F)c(=O)c(O)c3C(=O)N12` [dolutegravir], the “Phenotypic resistance/sensitivity” value in series [1] is listed as “sensitive”.

On to `O=C1Nc2ccc(Cl)cc2[C@@](C#CC2CC2)(C(F)(F)F)O1` [efavirenz], for which, in series [1], the “Phenotypic resistance/sensitivity” value was “phenotypic resistance”.

As for `COc1cc2c(cc1Cc1cccc(Cl)c1F)c(=O)c(C(=O)O)cn2[C@H](CO)C(C)C` [elvitegravir], the “Phenotypic resistance/sensitivity” value in series [1] was “phenotypic resistance”.

`Cc1ccnc2c1NC(=O)c1cccnc1N2C1CC1` [nevirapine]: in series [1], the “Phenotypic resistance/sensitivity” value is on record as “phenotypic resistance”.

On to `Cc1nnc(C(=O)NC(C)(C)c2nc(C(=O)NCc3ccc(F)cc3)c(O)c(=O)n2C)o1` [raltegravir], for which the “Phenotypic resistance/sensitivity” value in series [1] was “phenotypic resistance”.

With `Cc1cc(/C=C/C#N)cc(C)c1Nc1ccnc(Nc2ccc(C#N)cc2)n1` [rilpivirine], in series [1], the “Phenotypic resistance/sensitivity” value is “phenotypic resistance”. In addition, the IC90 in the series with wild-type HIV-1 (Human immunodeficiency virus 1, read-out: in vitro PA-IC90) stood at 0.012 µg/mL (≈ 0.0327 µM). In addition, the “C0 relative to in vitro PA-IC90” value in series [3] (eight-week IM LA) is recorded as 5 fold; in series [3] (four-week IM LA), 8 fold. The C0 at 48 week in series [3] (four-week IM LA, read-out: geometric mean C0) worked out at 94.6 ng/mL. Besides, the “Accumulation on repeated IM dosing” value in series [3] (through 48 weeks of dosing, both IM arms) is reported as “Accumulation of rilpivirine was observed”.
